Measurements: the NIST ThermoML archive (doi:10.1021/acs.jced.7b00221)
± gives the expanded uncertainty stated by the source.

Assay: xn = mol fraction of the nth substance listed
Details: 100 kPa, Liquid; for viscosity: Cone and plate viscometry; for mass density: Vibrating tube method

CCCCCCCC[P+](CC)(CC)CC.O=[N+]([O-])c1cn[n-]c1 [triethyloctylphosphonium 4-nitropyrazolide] + CCCCCCn1cc[n+](C)c1C.O=S(=O)([N-]S(=O)(=O)C(F)(F)F)C(F)(F)F
Details	mass density [kg/m3]	viscosity [mPa·s]
278.15 K, x1 = 0.124	–	602 ± 78
278.15 K, x1 = 0.25	–	771 ± 100
278.15 K, x1 = 0.401	–	1011 ± 130
278.15 K, x1 = 0.5	–	1156 ± 160
278.15 K, x1 = 0.6	–	1244 ± 170
278.15 K, x1 = 0.751	–	1382 ± 190
278.15 K, x1 = 0.9	–	1386 ± 190
283.15 K, x1 = 0.124	1331.5 ± 12	409 ± 52
283.15 K, x1 = 0.25	1290 ± 12	510 ± 66
283.15 K, x1 = 0.401	–	658 ± 86
283.15 K, x1 = 0.5	1206.7 ± 12	742 ± 97
283.15 K, x1 = 0.6	–	795 ± 100
283.15 K, x1 = 0.751	1123.8 ± 12	883 ± 120
283.15 K, x1 = 0.9	1074.2 ± 12	890 ± 120
283.15 K, x1 = 1	1040.7 ± 12	–
288.15 K, x1 = 0.124	1327.1 ± 12	283 ± 35
288.15 K, x1 = 0.25	1285.9 ± 12	348 ± 44
288.15 K, x1 = 0.401	–	442 ± 56
288.15 K, x1 = 0.5	1203 ± 12	491 ± 63
288.15 K, x1 = 0.6	–	524 ± 67
288.15 K, x1 = 0.751	1120.4 ± 12	580 ± 75
288.15 K, x1 = 0.9	1071 ± 12	589 ± 76
288.15 K, x1 = 1	1037.7 ± 12	–
293.15 K, x1 = 0.124	1322.8 ± 12	204 ± 25
293.15 K, x1 = 0.25	1281.8 ± 12	246 ± 31
293.15 K, x1 = 0.401	–	307 ± 39
293.15 K, x1 = 0.5	1199.2 ± 12	338 ± 43
293.15 K, x1 = 0.6	–	359 ± 45
293.15 K, x1 = 0.751	1117 ± 12	396 ± 50
293.15 K, x1 = 0.9	1067.8 ± 12	404 ± 51
293.15 K, x1 = 1	1034.6 ± 12	–
295.15 K, x1 = 0.124	1321 ± 12	–
295.15 K, x1 = 0.25	1280.1 ± 12	–
295.15 K, x1 = 0.5	1197.7 ± 12	–
295.15 K, x1 = 0.751	1115.6 ± 12	–
295.15 K, x1 = 0.9	1066.5 ± 12	–
295.15 K, x1 = 1	1033.4 ± 12	–
298.15 K, x1 = 0.124	1318.5 ± 12	151 ± 18
298.15 K, x1 = 0.25	1277.6 ± 12	179 ± 22
298.15 K, x1 = 0.401	–	220 ± 27
298.15 K, x1 = 0.5	1195.5 ± 12	241 ± 30
298.15 K, x1 = 0.6	–	254 ± 32
298.15 K, x1 = 0.751	1113.6 ± 12	279 ± 35
298.15 K, x1 = 0.9	1064.6 ± 12	285 ± 36
298.15 K, x1 = 1	1031.5 ± 12	–
303.15 K, x1 = 0.124	1314.3 ± 12	115 ± 14
303.15 K, x1 = 0.25	1273.7 ± 12	135 ± 16
303.15 K, x1 = 0.401	–	163 ± 20
303.15 K, x1 = 0.5	1191.8 ± 12	177 ± 22
303.15 K, x1 = 0.6	–	185 ± 23
303.15 K, x1 = 0.751	1110.2 ± 12	203 ± 25
303.15 K, x1 = 0.9	1061.4 ± 12	208 ± 26
303.15 K, x1 = 1	1028.5 ± 12	–
308.15 K, x1 = 0.124	1310.1 ± 12	90 ± 11
308.15 K, x1 = 0.25	1269.7 ± 12	104 ± 13
308.15 K, x1 = 0.401	–	124 ± 15
308.15 K, x1 = 0.5	1188.1 ± 12	134 ± 16
308.15 K, x1 = 0.6	–	139 ± 17
308.15 K, x1 = 0.751	1106.9 ± 12	152 ± 19
308.15 K, x1 = 0.9	1058.3 ± 12	156 ± 19
308.15 K, x1 = 1	1025.5 ± 12	–
313.15 K, x1 = 0.124	1306 ± 12	72 ± 9
313.15 K, x1 = 0.25	1265.7 ± 12	82 ± 10
313.15 K, x1 = 0.401	–	97 ± 12
313.15 K, x1 = 0.5	1184.5 ± 12	103 ± 13
313.15 K, x1 = 0.6	–	106 ± 13
313.15 K, x1 = 0.751	1103.7 ± 12	117 ± 14
313.15 K, x1 = 0.9	1055.3 ± 12	119 ± 14
313.15 K, x1 = 1	1022.6 ± 12	–
318.15 K, x1 = 0.124	1301.8 ± 12	58 ± 7
318.15 K, x1 = 0.25	1261.7 ± 12	65 ± 8
318.15 K, x1 = 0.401	–	77 ± 9
318.15 K, x1 = 0.5	1180.9 ± 12	82 ± 10
318.15 K, x1 = 0.6	–	83 ± 10
318.15 K, x1 = 0.751	1100.4 ± 12	91 ± 11
318.15 K, x1 = 0.9	1052.2 ± 12	94 ± 11
318.15 K, x1 = 1	1019.6 ± 12	–
323.15 K, x1 = 0.124	1297.6 ± 12	–
323.15 K, x1 = 0.25	1257.7 ± 12	53 ± 6
323.15 K, x1 = 0.401	–	63 ± 8
323.15 K, x1 = 0.5	1177.3 ± 12	66 ± 8
323.15 K, x1 = 0.6	–	67 ± 8
323.15 K, x1 = 0.751	1097.1 ± 12	73 ± 9
323.15 K, x1 = 0.9	1049.1 ± 12	75 ± 9
323.15 K, x1 = 1	1016.7 ± 12	–
328.15 K, x1 = 0.124	1293.5 ± 12	–
328.15 K, x1 = 0.25	1253.8 ± 12	–
328.15 K, x1 = 0.5	1173.7 ± 12	–
328.15 K, x1 = 0.751	1093.9 ± 12	–
328.15 K, x1 = 0.9	1046.1 ± 12	–
328.15 K, x1 = 1	1013.8 ± 12	–
333.15 K, x1 = 0.124	1289.3 ± 12	–
333.15 K, x1 = 0.25	1249.8 ± 12	–
333.15 K, x1 = 0.5	1170.2 ± 12	–
333.15 K, x1 = 0.751	1090.6 ± 12	–
333.15 K, x1 = 0.9	1043 ± 12	–
333.15 K, x1 = 1	1010.8 ± 12	–
338.15 K, x1 = 0.124	1285.1 ± 12	–
338.15 K, x1 = 0.25	1245.8 ± 12	–
338.15 K, x1 = 0.5	1166.6 ± 12	–
338.15 K, x1 = 0.751	1087.4 ± 12	–
338.15 K, x1 = 0.9	1040 ± 12	–
338.15 K, x1 = 1	1007.9 ± 12	–
343.15 K, x1 = 0.124	1281 ± 12	–
343.15 K, x1 = 0.25	1241.9 ± 12	–
343.15 K, x1 = 0.5	1163 ± 12	–
343.15 K, x1 = 0.751	1084.1 ± 12	–
343.15 K, x1 = 0.9	1036.9 ± 12	–
343.15 K, x1 = 1	1005 ± 12	–
348.15 K, x1 = 0.124	1276.9 ± 12	–
348.15 K, x1 = 0.25	1237.9 ± 12	–
348.15 K, x1 = 0.5	1159.5 ± 12	–
348.15 K, x1 = 0.751	1080.9 ± 12	–
348.15 K, x1 = 0.9	1033.9 ± 12	–
348.15 K, x1 = 1	1002.1 ± 12	–
353.15 K, x1 = 0.124	1272.7 ± 12	–
353.15 K, x1 = 0.25	1234 ± 12	–
353.15 K, x1 = 0.5	1155.9 ± 12	–
353.15 K, x1 = 0.751	1077.7 ± 12	–
353.15 K, x1 = 0.9	1030.9 ± 12	–
353.15 K, x1 = 1	999.2 ± 12	–
